A short description of data set [1]: Selectivity index, ratio of IC50 for human WI38 cells to IC50 for Leishmania mexicana mexicana MHOM/BZ/84/BEL46 promastigotes. In kind it is toxicity, cell-based, WI-38. Particulars: read-out: Ratio IC50.
A further data set concerns WI-38. Put plainly: Cytotoxicity against human WI38 cells by MTT assay. In kind it is cell-based. A general note: Formazan colour is commonly taken as a measure of viable cells.
The subject of another data set is Plasmodium falciparum. In words: Antiplasmodial activity against erythrocytic stage of chloroquine-sensitive Plasmodium falciparum 3D7 assessed as parasite LDH activity by three-fold serial dilution method. In kind it is functional, organism-based.
Data set [2] has as its system Leishmania mexicana mexicana. In words: Antileishmanial activity against Leishmania mexicana mexicana MHOM/BZ/84/BEL46 promastigotes assessed as parasite LDH activity by three-fold serial dilution method. In kind it is functional, organism-based.
Data set [3] has as its system Trypanosoma brucei brucei. Put plainly: Antitrypanosomal activity against Trypanosoma brucei brucei Lister 427 bloodstream form assessed as parasite LDH activity by three-fold serial dilution method. The class given is functional, organism-based.
A short description of a further data set: in vitro. Conditions: human, WI38 cells.
The nature of data set [4]: Selectivity index, ratio of IC50 for human WI38 cells to IC50 for erythrocytic stage of chloroquine-sensitive Plasmodium falciparum 3D7. The class given is toxicity, cell-based, WI-38. Particulars: read-out: Ratio IC50.

≈ marks a conversion by molar mass, not a printed value.

In ChEMBL document CHEMBL2413023, “Antiparasitic hybrids of Cinchona alkaloids and bile acids” (Eur J Med Chem, 2013) one finds selectivity ratio and IC50 data, which are given here for 2 compounds.

Description for in vitro: Selectivity index, ratio of IC50 for human WI38 cells to IC50 for Trypanosoma brucei brucei Lister 427 bloodstream form

In the case of `C=C[C@H]1CN2CC[C@H]1C[C@H]2[C@H](O)c1cc(CC[C@@H](C)[C@H]2CC[C@H]3[C@@H]4CC[C@@H]5C[C@H](OC(C)=O)CC[C@]5(C)[C@H]4CC[C@]23C)nc2ccccc12`, the selectivity ratio in data set [1] came to 0.46; in the data set “in vitro”, 4.4; in data set [4] it was 4.6. In addition, the IC50 (in general, the midpoint of a concentration-inhibition curve) in the data set on WI-38 amounted to 5.58 µg/mL (≈ 8.37 µM); in the data set with Plasmodium falciparum, 1.21 µg/mL (≈ 1.81 µM); in data set [2] it was 12.2 µg/mL (≈ 18.3 µM); in data set [3], 1.27 µg/mL (≈ 1.9 µM).

On to `C=C[C@H]1CN2CC[C@H]1C[C@H]2[C@H](O)c1cc(CC[C@@H](C)[C@H]2CC[C@H]3[C@@H]4[C@H](O)C[C@@H]5C[C@H](O)CC[C@]5(C)[C@H]4CC[C@]23C)nc2ccc(OC)cc12`, for which the selectivity ratio in data set [1] came out at 0.98; in “in vitro” it was 11.1; in data set [4], 15.5. The IC50 came out at 4.57 µg/mL (≈ 6.81 µM) in the data set with WI-38, 0.3 µg/mL (≈ 0.447 µM) in the data set with Plasmodium falciparum, 4.67 µg/mL (≈ 6.96 µM) in data set [2] and 0.41 µg/mL (≈ 0.611 µM) in data set [3].
